pIC50: −log10 of the molar value. Bounds are passed on as bounds.

The experiment concerns the target T1, full length active recombinant SYK enzyme (Homo sapiens, UniProt P43405).
T1 construct: full length active recombinant SYK enzyme (Millipore, Calif.); purchased Millipore
The experiment in a line: Inhibition of Syk tyrosine phosphorylation activity (LANCE TR-FRET kinase assay). The format is biochemical. The conditions noted are these: 1 nM active SYK enzyme, 550 nM SYK-substrate, 100 μM ATP, 1 hour at room temperature. How it is done:
The in vitro and in vivo human Syk activities of the inventive compounds can be determined by various procedures known in the art, such as a test for their ability to inhibit the activity of human plasma Syk.
Inhibition of Syk Tyrosine Phosphorylation Activity
SYK tyrosine phosphorylation activity is measured using the LANCE™ Technology developed by Perkin Elmer Life and Analytical Sciences (Boston, Mass.). LANCE™ refers to homogeneous time resolved fluorometry applications using techniques such as time-resolved fluorescence resonance energy transfer assay (TR-FRET) (see generally for procedures in Perkin Elmer Application Note—How to Optimize a Tyrosine Kinase Assay Using Time Resolved Fluorescence-Based LANCE Detection, wwww.perkinelmer.com/lifesciences). The assay principle involves detection of a phosphorylated substrate using energy transfer from a phosphospecific europium-labeled antibody to streptavidin-allophycocyanin as an acceptor.
Molecules are reconstituted in 30% DMSO and serially diluted 1:3 with the final dilution containing DMSO in the absence of the candidate molecule. The final DMSO concentration in the assay is 3%. Kinase assays are performed as a two part reaction. […] The second reaction involves termination of the kinase reaction and the simultaneous addition of the detection reagents-europium-labeled anti-phosphotyrosine reagent (Eu-W1024-PY100, Perkin Elmer, Boston, Mass.) and Streptavidin-Allophycocyanin detection reagent (SA-APC, Prozyme, CA). The kinase reaction is performed in a black U-bottom 96-well microtitre plate. […] The reaction is allowed to proceed for 1 hour at room temperature. The quench buffer contains 100 mM Tris pH 7.5, 300 mM […], 20 mM EDTA, 0.02% Brij35, and 0.5% BSA. The detection reagents are added to the reaction mixture at the following dilutions-1:500 for Eu-W1024-PY100 and 1:250 for SA-APC. The kinase reaction is terminated by the addition of 50 μL quench buffer containing the detection reagents. The detection is allowed to proceed for 1 hr at room temperature. Detection of the phosphorlated substrate in the absence and presence of inhibitors is measured in the TR-FRET instrument, Analyst HT (Molecular Probes, Sunnyvale, Calif.) and the condition for measurements are set up using CriterionHost Release 2.0 (Molecular Probes, Sunnyvale, Calif.). […] IC50s were derived by non-linear regression analysis.
For orientation: Time-resolved FRET reads energy transfer from a long-lived donor to a nearby acceptor.

As for `NC(=O)c1nnc(N[C@@H]2CCOC[C@@H]2N)nc1Nc1ccc2ncccc2c1` [Example 55, 3-(((3R,4R)-3-aminotetrahydro-2H-pyran-4-yl)amino)-5-(quinolin-6-ylamino)-1,2,4-triazine-6-carboxamide], the pIC50 is 8.00 to 9.00.
The figure for `NC(=O)c1nnc(N[C@H]2CC[C@@H](N)CC2)nc1Nc1ccc2ncccc2c1` [Example 56, 3-(((1S,4S)-4-aminocyclohexyl)amino)-5-(quinolin-6-ylamino)-1,2,4-triazine-6-carboxamide] is 7.00 to 8.00; for `NC(=O)c1nnc(N[C@@H]2CCNC2)nc1Nc1ccc2ncccc2c1` [Example 57, (R)-3-(pyrrolidin-3-ylamino)-5-(quinolin-6-ylamino)-1,2,4-triazine-6-carboxamide] it is 8.00 to 9.00; for `NC(=O)c1nnc(N[C@@H]2CCCC[C@@H]2N)nc1Nc1cnc2ccccc2c1` [Example 58, 3-(((1R,2S)-2-aminocyclohexyl)amino)-5-(quinolin-3-ylamino)-1,2,4-triazine-6-carboxamide] it is 8.00 to 9.00.
The figure for `CC[C@@H](Nc1nnc(C(N)=O)c(Nc2cnc3ccccc3c2)n1)C(N)=O` [Example 59, (R)-3-((1-amino-1-oxobutan-2-yl)amino)-5-(quinolin-3-ylamino)-1,2,4-triazine-6-carboxamide] is 7.00 to 8.00; for `CN(C)C(=O)c1ccc(Nc2nc(N[C@@H]3CCCC[C@@H]3N)nnc2C(N)=O)cc1` [Example 62, 3-(((1R,2S)-2-aminocyclohexyl)amino)-5-((4-(dimethylcarbamoyl)phenyl)amino)-1,2,4-triazine-6-carboxamide] it is 6.00 to 7.00.
The figure for `NC(=O)c1nnc(N[C@@H]2CCCC[C@@H]2N)nc1Nc1ccc(C(=O)N2CCC2)cc1` [Example 63, 3-(((1R,2S)-2-aminocyclohexyl)amino)-5-((4-(azetidine-1-carbonyl)phenyl)amino)-1,2,4-triazine-6-carboxamide] is 7.00 to 8.00; for `Cc1cc(Nc2nc(N[C@@H]3CCCC[C@@H]3N)nnc2C(N)=O)ccc1C(=O)N1CCC1` [Example 64, 3-(((1R,2S)-2-aminocyclohexyl)amino)-5-((4-(azetidine-1-carbonyl)-3-methylphenyl)amino)-1,2,4-triazine-6-carboxamide] it is 7.00 to 8.00; for `CN(C)C(=O)c1ccc(Nc2nc(N[C@@H]3CCCC[C@@H]3N)nnc2C(N)=O)cn1` [Example 65, 3-(((1R,2S)-2-aminocyclohexyl)amino)-5-((6-(dimethylcarbamoyl)pyridin-3-yl)amino)-1,2,4-triazine-6-carboxamide] it is less than 6.00.
On to `NC(=O)c1nnc(N[C@@H]2CCCC[C@@H]2N)nc1Nc1ccc(C(=O)N2CCC2)nc1` [Example 66, 3-(((1R,2S)-2-aminocyclohexyl)amino)-5-((6-(azetidine-1-carbonyl)pyridin-3-yl)amino)-1,2,4-triazine-6-carboxamide], for which the negative logarithm of the IC50 (pIC50) is 7.00 to 8.00.
The figure for `NC(=O)c1nnc(N[C@@H]2CCCC[C@@H]2N)nc1Nc1ccc(F)nc1` [Example 67, 3-(((1R,2S)-2-aminocyclohexyl)amino)-5-((6-fluoropyridin-3-yl)amino)-1,2,4-triazine-6-carboxamide] is 6.00 to 7.00; for `COc1cc(Nc2nc(N[C@@H]3CCCC[C@@H]3N)nnc2C(N)=O)ccn1` [Example 68, 3-(((1R,2S)-2-aminocyclohexyl)amino)-5-((2-methoxypyridin-4-yl)amino)-1,2,4-triazine-6-carboxamide] it is 8.00 to 9.00; for `NC(=O)c1nnc(N[C@@H]2CCCC[C@@H]2N)nc1Nc1ccccc1` [Example 69, 3-(((1R,2S)-2-aminocyclohexyl)amino)-5-(phenylamino)-1,2,4-triazine-6-carboxamide] it is 8.00 to 9.00.
The figure for `NC(=O)c1nnc(N[C@@H]2CCNC2)nc1Nc1cccc(-c2ncccn2)c1` [Example 70, (R)-5-((3-(pyrimidin-2-yl)phenyl)amino)-3-(pyrrolidin-3-ylamino)-1,2,4-triazine-6-carboxamide] is 7.00 to 8.00; for `NC(=O)c1nnc(N[C@@H]2CCOC[C@@H]2N)nc1Nc1cccc(-c2ncccn2)c1` [Example 71, 3-(((3R,4R)-3-aminotetrahydro-2H-pyran-4-yl)amino)-5-((3-(pyrimidin-2-yl)phenyl)amino)-1,2,4-triazine-6-carboxamide] it is 7.00 to 8.00.
The figure for `N#Cc1cccc(Nc2nc(N[C@@H]3CCCC[C@@H]3N)nnc2C(N)=O)c1` [Example 72, 3-(((1R,2S)-2-aminocyclohexyl)amino)-5-((3-cyanophenyl)amino)-1,2,4-triazine-6-carboxamide] is 8.00 to 9.00; for `CC[C@@H](Nc1nnc(C(N)=O)c(Nc2cccc(C#N)c2)n1)C(N)=O` [Example 73, (R)-3-((1-amino-1-oxobutan-2-yl)amino)-5-((3-cyanophenyl)amino)-1,2,4-triazine-6-carboxamide] it is 6.00 to 7.00; for `CC[C@@H](Nc1nnc(C(N)=O)c(Nc2ccc(C#N)cc2)n1)C(N)=O` [Example 74, (R)-3-((1-amino-1-oxobutan-2-yl)amino)-5-((4-cyanophenyl)amino)-1,2,4-triazine-6-carboxamide] it is 6.00 to 7.00.
Turning to `N#Cc1ccc(Nc2nc(N[C@@H]3CCCC[C@@H]3N)nnc2C(N)=O)cc1` [Example 75, 3-(((1R,2S)-2-aminocyclohexyl)amino)-5-((4-cyanophenyl)amino)-1,2,4-triazine-6-carboxamide], the pIC50 is 7.00 to 8.00.
The figure for `N#Cc1ccc(Nc2nc(N[C@@H]3CCOC[C@@H]3N)nnc2C(N)=O)cc1` [Example 76, 3-(((3R,4R)-3-aminotetrahydro-2H-pyran-4-yl)amino)-5-((4-cyanophenyl)amino)-1,2,4-triazine-6-carboxamide] is 6.00 to 7.00; for `CC(C)C[C@@H](Nc1nnc(C(N)=O)c(Nc2cccc(-c3ncccn3)c2)n1)C(N)=O` [Example 77, (R)-3-((1-amino-4-methyl-1-oxopentan-2-yl)amino)-5-((3-(pyrimidin-2-yl)phenyl)amino)-1,2,4-triazine-6-carboxamide] it is 7.00 to 8.00; for `Cn1cc(Nc2nc(N[C@@H]3CCCC[C@@H]3N)nnc2C(N)=O)cn1` [Example 78, 3-(((1R,2S)-2-aminocyclohexyl)amino)-5-((1-methyl-1H-pyrazol-4-yl)amino)-1,2,4-triazine-6-carboxamide] it is 6.00 to 7.00.
The figure for `Cn1cc(Nc2nc(N[C@@H]3CCOC[C@@H]3N)nnc2C(N)=O)cn1` [Example 79, 3-(((3R,4R)-3-aminotetrahydro-2H-pyran-4-yl)amino)-5-((1-methyl-1H-pyrazol-4-yl)amino)-1,2,4-triazine-6-carboxamide] is 6.00 to 7.00; for `CC[C@@H](Nc1nnc(C(N)=O)c(Nc2cccc3c2ccn3C)n1)C(N)=O` [Example 80, (R)-3-((1-amino-1-oxobutan-2-yl)amino)-5-((1-methyl-1H-indol-4-yl)amino)-1,2,4-triazine-6-carboxamide] it is 8.00 to 9.00.
In the case of `Cn1ccc2c(Nc3nc(N[C@@H]4CCCC[C@@H]4N)nnc3C(N)=O)cccc21` [Example 81, 3-(((1R,2S)-2-aminocyclohexyl)amino)-5-((1-methyl-1H-indol-4-yl)amino)-1,2,4-triazine-6-carboxamide], the pIC50 is 8.00 to 9.00.
The figure for `Cn1ccc2c(Nc3nc(N[C@@H]4CCOC[C@@H]4N)nnc3C(N)=O)cccc21` [Example 82, 3-(((3R,4R)-3-aminotetrahydro-2H-pyran-4-yl)amino)-5-((1-methyl-1H-indol-4-yl)amino)-1,2,4-triazine-6-carboxamide] is 8.00 to 9.00; for `CC(C)C[C@@H](Nc1nnc(C(N)=O)c(Nc2cccc(-n3nccn3)c2)n1)C(N)=O` [Example 83, (R)-5-((3-(2H-1,2,3-triazol-2-yl)phenyl)amino)-3-((1-amino-4-methyl-1-oxopentan-2-yl)amino)-1,2,4-triazine-6-carboxamide] it is 7.00 to 8.00.
On to `CC[C@@H](Nc1nnc(C(N)=O)c(Nc2cccc(-c3ncccn3)c2)n1)C(N)=O` [Example 84, (R)-3-((1-amino-1-oxobutan-2-yl)amino)-5-((3-(pyrimidin-2-yl)phenyl)amino)-1,2,4-triazine-6-carboxamide], for which the pIC50 is 6.00 to 7.00.

Usually pIC50 stands for −log10 of the IC50, conventionally taken in molar units.

The values are drawn from US9040530B2, “1,2,4-triazine-6-carboxamide kinase inhibitors” (Portola Pharmaceuticals, Inc., priority 2012, dated 2015).
